# Measured values reported in patent publication US5460697A, “Method of pulping wood chips with a fungi using sulfite salt-treated wood chips” (priority 1994, dated 1995).
# “Also recorded” adds a separate entry of the source.
# Tests used:
# C. subvermispora = test: Growth of C. subvermispora on sodium bisulfite-treated chips; assay type: cell-based; settings: for growth of C. subvermispora at harvest (in words): fungus-treated chips with sodium bisulfite
# Experimental: To prepare a liquid inoculum of C. subvermispora, potato dextrose broth (43.20 g) and yeast extract (13.08 g) were added to 1800 ml of distilled water and mixed well. 300 ml of this medium was poured into six 2800-ml flasks. Each flask was autoclaved for 20 min. at 121° C. After cooling to room temperature, each flask was inoculated with 30 plugs cut into 13-mm diameter plugs from a 10-day old fungal culture on a potato dextrose agar plate. The flasks were then incubated at 27° C. at 65% relative humidity for 10-15 days. Prior to use, the flasks containing the fungal biomass were decanted and washed with sterile distilled water to remove excess medium from the fungus. The fungal biomass was then placed in distilled water and blended in a Waring blender (VWR scientific) twice for 15 seconds each time at high speed, following which distilled water was added to the suspension to make the total volume 500 ml. About 100 grams of this suspension (2.61 g dry weight) was added to each bioreactor containing about 1600 grams of aspen chips measured on a dry weight basis prepared as described below. The blended mycelium was dumped onto the chips and mixed.
# Three batches of aspen wood chips were prepared, each batch containing 1800 g dry weight of chips. One batch was soaked in 18 kg of water containing no sodium bisulfite. A second batch was soaked in 18 kg of water containing 28.125 g of sodium bisulfite. A third batch was soaked in 18 kg of water containing 56.250 g of sodium bisulfite. After the chips had soaked, we performed our experiments on 1600 g of chips (dry weight basis). The soaking was done at room temperature for about 1 hour. […] Based on the amount of water or sodium bisulfite solution absorbed by the chips, we calculated that 1600 g dry weight of chips retained about 600 or 1200 μg/ml of sodium bisulfite. […]
# We repeated the experiment described above with a four-week incubation. […] Based on the amount of water or sodium bisulfite solution soaked, we calculated that each batch of 1600 g dry weight of chips retained about 1300 μg/ml of sodium bisulfite. […]
# [1] = Effluent toxicity (Microtox); settings: for Toxicity Units (100/EC50): 1300 μg/ml BiS
# From the text: Evaluating biopulp effluents is an important factor in assessing the feasibility of this new pulping process. […] Because the composition of biopulp effluent is unknown, we selected a general toxicity test method, Microtox, as an appropriate method for the evaluation. Microtox analysis has been used satisfactorily as a rapid screening method for evaluating toxicity of pulp mill effluents Firth, B. and Backman, C. Tappi J., 75[12]169; 1991.
# For each run, approximately 1.5-1.6 kg wood chips (oven dry weight basis) of each treatment from 4-week incubation samples, were fiberized in an atmospheric refiner and the pulp slurry was collected in 20-gallon plastic containers. The flow rate during refining operation was approximately 50 kg 90° C. water per kg chips (oven dry weight basis). A representative 5-gallon sample was taken from each slurry and filtered on a Buchner funnel to separate pulp from effluent (filtrate). Filtrates were cooled to 4° C. and pH was recorded. Chilled effluent samples were submitted for Microtox testing at National Council for Air and Stream Improvement according to standard Microtox procedures.
# [2] = tested on: Phanerochaete chrysosporium BKM-F-1767; test: Effect of sodium bisulfite on radial growth and mycelial dry weight of P. chrysosporium; assay type: cell-based
# Experimental: (§1) 2% agar was added to the medium. The medium was autoclaved for 15 min. and the medium was poured into petri dishes. These plates were then inoculated with a plug cut into 8-mm diameter plugs from a petri dish containing a 5-day-old culture of P. chrysosporium or a petri dish containing a 10-day-old culture of another white-rot fungi. P. chrysosporium-inoculated plates were incubated at 39° C. Plates inoculated with other fungi were incubated at 27° C.
# H. setulosa FP-106976-sp = test: Effect of sodium bisulfite on radial growth of white-rot fungi; assay type: cell-based; settings: 500 μg/ml
# Experimental: as §1
# P. brevispora 7030-sp = test: as above; assay type: cell-based; settings: 500 μg/ml
# Experimental: as §1
# [3] = tested on: P. subserialis RLG-6074-sp; test: as above; assay type: cell-based; settings: 500 μg/ml
# Experimental: as §1
# P. tremellosa PRL-2845 = test: as above; assay type: cell-based; settings: 500 μg/ml
# Experimental: as §1
smiles,measurement,setting,value
O=S([O-])O.[Na+] [Sodium Bisulfite],growth of C. subvermispora at harvest (in words),C. subvermispora; 2 weeks,heavy growth of C. subvermispora
same,growth of C. subvermispora at harvest (in words),C. subvermispora; 4 weeks,heavy growth of C. subvermispora
same,growth of white-rot fungi such as C. subvermispora (in words),"C. subvermispora; treatment of wood chips, summary",promoted the growth of white-rot fungi
same,Toxicity Units (100/EC50),"[1]; Control 2: not A/C, no fungus",15.4 Toxicity Units
same,Toxicity Units (100/EC50),"[1]; Control 4: A/C, no fungus",16.1 Toxicity Units
same,Toxicity Units (100/EC50),"[1]; Treatment 2: not A/C, with fungus, 4-week incubation",4.2 Toxicity Units
same,Toxicity Units (100/EC50),"[1]; Treatment 4: A/C, with fungus, 4-week incubation",6.2 Toxicity Units
same,toxicity (in words),"[1]; at least 2-2.5 kg/ton of wood chips, unsterilized, vs control chips",less toxicity than from control chips
same,effluent toxicity (in words),"[1]; biopulp, treatment 2",least toxic effluent from biopulp
same,effluent toxicity (in words),"[1]; controls without fungus (control 2, control 4)",high effluent toxicity; also recorded: increased effluent toxicity of the non-autoclaved control chips
same,Mycelial Dry Weight 36 ± SD,[2]; 100 μg/ml,21 ± 3 mg
same,Radial Growth 24 h ± SD,[2]; 100 μg/ml,4.30 ± .26 cm
same,Radial Growth 36h ± SD,[2]; 100 μg/ml,7.52 ± .27 cm
same,Mycelial Dry Weight 36 ± SD,[2]; 250 μg/ml,39 ± 8 mg
same,Radial Growth 24 h ± SD,[2]; 250 μg/ml,5.16 ± .28 cm
same,Radial Growth 36h ± SD,[2]; 250 μg/ml,8.62 ± .20 cm
same,Mycelial Dry Weight 36 ± SD,[2]; 500 μg/ml,36 ± 6 mg
same,Radial Growth 24 h ± SD,[2]; 500 μg/ml,5.07 ± .25 cm
same,Radial Growth 36h ± SD,[2]; 500 μg/ml,8.68 ± .09 cm
same,Mycelial Dry Weight 36 ± SD,[2]; 1000 μg/ml,10 ± 2 mg
same,Radial Growth 24 h ± SD,[2]; 1000 μg/ml,1.15 ± .22 cm
same,Radial Growth 36h ± SD,[2]; 1000 μg/ml,2.88 ± .42 cm
same,dry weight of the fungus (in words),[2]; 250 or 500 μg/ml,increased
same,radial growth (in words),"[2]; 250 or 500 μg/ml, 24 and 36 h",increased the radial growth of P. chrysosporium
same,growth of white-rot fungi such as P. chrysosporium (in words),[2]; summary statement,promoted the growth of white-rot fungi
same,Radial growth 72h ± SD,H. setulosa FP-106976-sp; 72 h,1.97 ± .06 cm
same,Radial growth 96h ± SD,H. setulosa FP-106976-sp; 96 h,3.77 ± .25 cm
same,Radial growth 72h ± SD,P. brevispora 7030-sp; 72 h,2.23 ± .06 cm
same,Radial growth 96h ± SD,P. brevispora 7030-sp; 96 h,4.07 ± .38 cm
same,Radial growth 72h ± SD,[3]; 72 h,3.93 ± .42 cm
same,Radial growth 96h ± SD,[3]; 96 h,7.07 ± .29 cm
same,Radial growth 72h ± SD,P. tremellosa PRL-2845; 72 h,1.73 ± .06 cm
same,Radial growth 96h ± SD,P. tremellosa PRL-2845; 96 h,2.97 ± .12 cm
